Data: patent publication US12139472B2, “Inhibitors of advanced glycation end products” (priority 2019, dated 2024)

Columns and labels:
Type in all cases: in vitro ADME
[1] = system: seven CYP enzymes; assay: Eurofins G232 panel, CYP inhibition in human liver microsomes; settings: HLM, 10 μM
Procedure: (§1) Two studies were conducted in human liver microsomes (HLM). Lead candidate PTG-630 was tested using the Eurofins G232 panel (Drug Metab Dispos. 2001 January; 29(1):23-9), where inhibition was measured against seven CYP enzymes; CYP3A4 was tested using two different substrates, midazolam and testosterone. In a second study, inhibition of CYP3A4 (midazolam substrate only) was compared for 8 compounds of interest. The test protocol involved one-point measurements in duplicate, where inhibition was measured at a fixed 10 μM concentration of candidate inhibitors. In all cases, the substrate for each CYP enzyme was at a concentration equal to its specific Km value that was independently obtained from an 8-point dose-response study. Based on the observed value for percent inhibition for each test compound, we calculated of an IC50 assuming a competitive mode of inhibition. If percent inhibition for an inhibitor at a concentration of [I] is denoted by P, then: IC50=[I]*(100−P)/P In the single-point assay, [I] is 10 μM. If measured inhibition is 10%, then IC50=10*(100-10)/10=90 μM. […] As discussed in Lin et al. (J Pharm Sci. 2007 September; 96(9):2485-93; doi: 10.1002/jps.20884), CYP inhibition is broadly interpreted as being “potent” if IC50<1 μM, “moderate” if 1 μM<IC50<10 μM, and “weak” if IC50>10 μM.

[2] = target: T1, CYP2B6 (Homo sapiens, UniProt P20813); settings: microsomes
T1 construct: Two studies were conducted in human liver microsomes (HLM); tissue Eurofins G232 panel; host or cells: human liver microsomes
T1 sequence (P20813 1-491): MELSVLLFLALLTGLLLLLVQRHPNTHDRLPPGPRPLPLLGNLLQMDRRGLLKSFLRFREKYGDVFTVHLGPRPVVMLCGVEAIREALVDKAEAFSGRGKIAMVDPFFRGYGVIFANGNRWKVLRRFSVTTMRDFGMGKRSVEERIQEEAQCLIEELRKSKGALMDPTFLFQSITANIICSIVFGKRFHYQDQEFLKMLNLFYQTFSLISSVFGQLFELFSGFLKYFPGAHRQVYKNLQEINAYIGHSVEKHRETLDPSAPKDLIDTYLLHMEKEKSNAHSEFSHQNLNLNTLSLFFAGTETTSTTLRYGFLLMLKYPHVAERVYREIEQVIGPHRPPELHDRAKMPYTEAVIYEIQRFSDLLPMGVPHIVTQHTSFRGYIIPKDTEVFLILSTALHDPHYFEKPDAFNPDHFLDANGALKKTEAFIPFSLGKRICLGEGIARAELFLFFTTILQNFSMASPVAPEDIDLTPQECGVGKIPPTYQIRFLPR
Procedure: (§2) Compound 5 (PTG-630 free base) and 7 additional compounds for CYP3A P450 inhibition.
as §1

[3] = target: T2, CYP2C8 (Homo sapiens, UniProt P10632); settings: microsomes
T2 construct: Two studies were conducted in human liver microsomes (HLM); tissue Eurofins G232 panel; host or cells: human liver microsomes
T2 sequence (P10632 1-490): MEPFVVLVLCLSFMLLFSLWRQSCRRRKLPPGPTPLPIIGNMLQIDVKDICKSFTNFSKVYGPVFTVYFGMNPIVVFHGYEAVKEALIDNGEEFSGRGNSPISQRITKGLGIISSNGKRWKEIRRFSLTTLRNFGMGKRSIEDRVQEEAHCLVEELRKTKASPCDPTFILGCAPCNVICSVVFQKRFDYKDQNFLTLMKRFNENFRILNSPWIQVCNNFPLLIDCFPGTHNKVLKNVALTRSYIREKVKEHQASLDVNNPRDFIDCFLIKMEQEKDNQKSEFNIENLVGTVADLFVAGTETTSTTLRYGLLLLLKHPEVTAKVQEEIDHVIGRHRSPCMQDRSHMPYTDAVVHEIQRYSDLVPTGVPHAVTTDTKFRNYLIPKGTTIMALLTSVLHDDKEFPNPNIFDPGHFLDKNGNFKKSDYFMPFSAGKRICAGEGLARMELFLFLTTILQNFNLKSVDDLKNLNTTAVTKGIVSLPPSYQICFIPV
Procedure: as §2, §1

[4] = target: T3, CYP2C19 (Homo sapiens, UniProt P33261); assay: CYP2C19 inhibition (HLM), omeprazole
T3 construct: Two studies were conducted in human liver microsomes (HLM); tissue Eurofins G232 panel; host or cells: human liver microsomes
T3 sequence (P33261 whole entry): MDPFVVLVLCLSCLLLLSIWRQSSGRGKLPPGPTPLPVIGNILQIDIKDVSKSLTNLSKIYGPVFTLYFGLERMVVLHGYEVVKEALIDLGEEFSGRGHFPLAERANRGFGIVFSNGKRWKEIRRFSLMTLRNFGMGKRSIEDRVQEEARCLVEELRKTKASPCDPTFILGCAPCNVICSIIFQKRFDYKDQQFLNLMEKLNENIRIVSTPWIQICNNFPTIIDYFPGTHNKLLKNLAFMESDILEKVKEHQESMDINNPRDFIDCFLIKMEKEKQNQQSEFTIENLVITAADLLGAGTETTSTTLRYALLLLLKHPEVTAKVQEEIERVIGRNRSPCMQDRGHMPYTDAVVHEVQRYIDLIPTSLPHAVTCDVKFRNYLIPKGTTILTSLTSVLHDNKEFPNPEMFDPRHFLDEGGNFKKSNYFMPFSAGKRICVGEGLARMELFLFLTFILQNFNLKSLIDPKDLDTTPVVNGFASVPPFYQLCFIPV
Procedure: as §2, §1

[5] = target: T4, CYP2D6 (Homo sapiens, UniProt P10635); assay: CYP2D6 inhibition (HLM), dextromethorphan
T4 construct: Two studies were conducted in human liver microsomes (HLM); tissue Eurofins G232 panel; host or cells: human liver microsomes
T4 sequence (P10635 whole entry): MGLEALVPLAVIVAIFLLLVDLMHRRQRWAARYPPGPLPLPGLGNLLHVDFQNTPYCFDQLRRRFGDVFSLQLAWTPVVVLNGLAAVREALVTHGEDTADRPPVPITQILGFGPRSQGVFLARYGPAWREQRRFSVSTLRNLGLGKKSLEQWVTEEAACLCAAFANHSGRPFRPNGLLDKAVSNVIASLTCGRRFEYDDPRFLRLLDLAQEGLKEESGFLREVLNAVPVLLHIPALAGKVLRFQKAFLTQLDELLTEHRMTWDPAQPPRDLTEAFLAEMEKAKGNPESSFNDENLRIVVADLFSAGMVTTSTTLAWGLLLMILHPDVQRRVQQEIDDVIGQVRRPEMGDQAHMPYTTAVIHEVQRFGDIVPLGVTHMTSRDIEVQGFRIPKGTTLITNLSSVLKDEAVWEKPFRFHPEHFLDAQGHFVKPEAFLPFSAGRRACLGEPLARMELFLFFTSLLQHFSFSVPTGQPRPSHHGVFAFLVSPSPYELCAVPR
Procedure: as §2, §1

[6] = target: T5, CYP1A (Homo sapiens, UniProt P05177); assay: CYP1A inhibition (HLM) phenacetin
T5 construct: Two studies were conducted in human liver microsomes (HLM); tissue Eurofins G232 panel; host or cells: human liver microsomes
T5 sequence (P05177 1-516): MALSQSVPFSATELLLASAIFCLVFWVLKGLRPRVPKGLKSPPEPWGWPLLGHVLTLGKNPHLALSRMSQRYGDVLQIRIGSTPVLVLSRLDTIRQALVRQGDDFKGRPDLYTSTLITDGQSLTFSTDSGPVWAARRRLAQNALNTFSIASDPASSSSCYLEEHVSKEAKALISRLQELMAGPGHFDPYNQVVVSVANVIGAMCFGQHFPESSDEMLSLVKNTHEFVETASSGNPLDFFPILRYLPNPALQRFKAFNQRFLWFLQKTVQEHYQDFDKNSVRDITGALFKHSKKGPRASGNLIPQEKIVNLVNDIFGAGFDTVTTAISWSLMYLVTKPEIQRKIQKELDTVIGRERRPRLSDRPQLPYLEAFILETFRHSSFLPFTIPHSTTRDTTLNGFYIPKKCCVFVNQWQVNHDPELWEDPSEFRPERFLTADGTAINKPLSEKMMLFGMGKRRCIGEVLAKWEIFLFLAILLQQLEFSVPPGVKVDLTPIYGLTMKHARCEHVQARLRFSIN
Procedure: as §2, §1

In the case of `Cc1ncc(CN2CCOCC2)c(-c2ncc[nH]2)c1O` [PTG-630], the “CYP inhibition (in words)” value [1] is reported as “weak to undetectable”, the IC50 [2] is reported as 213 µM and the P % inhib [2] is reported as 4.5%. It also gave an IC50 [3] of 37 µM, a P % inhib [3] of 21.3% and an IC50 ([4]; omeprazole, from one-point % inhibition at 10 μM, IC50=[I]*(100−P)/P, read-out: Estimated IC50) of 26.4 µM. The P % inhib ([4]; substrate omeprazole at Km, Inhib Conc. 1.0E−05 M) was 27.5%, the “Estimated IC50” value ([5]; dextromethorphan, from one-point % inhibition at 10 μM, IC50=[I]*(100−P)/P) was “— None” and the P % inhib ([5]; substrate dextromethorphan at Km, Inhib Conc. 1.0E−05 M) was −0.83%. It also gave an IC50 ([6]; phenacetin, from one-point % inhibition at 10 μM, IC50=[I]*(100−P)/P, read-out: Estimated IC50) of 52.1 µM and a P % inhib ([6]; substrate phenacetin at Km, Inhib Conc. 1.0E−05 M) of 16.1%.
